Values joined by “and” are separate entries in the source; they are usually repeats but may differ in a detail not shown here. Equal values may be shown once.
Tested on: PDE4
Assay: Inhibition of PDE4 (enzyme purified from U937 human monocytic cells)
Type: biochemical
Details: 1 μM cAMP plus 10 nM [3H]-cAMP, 45 min at 30° C.
Protocol: Phosphodiesterase 4 enzyme was purified from U937 human monocytic cells by gel filtration chromatography, and phosphodiesterase reactions were carried out as previously described. See, e.g., Muller et al., Bioorg. Med. Chem. Lett., 1998, 8(19): 2669-2674. Briefly, reactions were carried out in 96-well deep-well plates in 50 mM Tris HCl pH 7.5, 5 mM MgCl2, 1 μM cyclic adenosine monophosphate (cAMP), plus 10 nM [^3H]-cAMP for 45 min at 30° C. The reactions were terminated by boiling, treated with 1 mg/ml snake venom, and separated using AG-1X8 ion exchange resin (BioRad). Reactions consumed less than 15% of available substrate. […] Compound B inhibited PDE4 with an IC50 of 100 nM.

SMILES | IC50
CCOc1cc([C@@H](CS(C)(=O)=O)N2C(=O)c3cccc(NC(C)=O)c3C2=O)ccc1OC [Compound A1, (S)—N-(2-(1-(3-ethoxy-4-methoxyphenyl)-2-(methylsulfonyl)ethyl)-1,3-dioxoisoindolin-4-yl)acetamide] | 73.5 nM and ~74 nM
CCOc1cc([C@@H](CS(C)(=O)=O)N2Cc3cccc(NC(=O)C4CC4)c3C2=O)ccc1OC [Compound B, (S)—N-(2-(1-(3-ethoxy-4-methoxyphenyl)-2-(methylsulfonyl)ethyl)-3-oxoisoindolin-4-yl)cyclopropanecarboxamide] | 100 nM and ~100 nM
